Biological target: T1, BmTy (tyrosinase from Bacillus megaterium) (Priestia megaterium, UniProt B2ZB02)
T1 construct: 6x His-tagged, expressed in E. coli BL21(DE3), Ni-NTA purified
T1 sequence (B2ZB02 1-297): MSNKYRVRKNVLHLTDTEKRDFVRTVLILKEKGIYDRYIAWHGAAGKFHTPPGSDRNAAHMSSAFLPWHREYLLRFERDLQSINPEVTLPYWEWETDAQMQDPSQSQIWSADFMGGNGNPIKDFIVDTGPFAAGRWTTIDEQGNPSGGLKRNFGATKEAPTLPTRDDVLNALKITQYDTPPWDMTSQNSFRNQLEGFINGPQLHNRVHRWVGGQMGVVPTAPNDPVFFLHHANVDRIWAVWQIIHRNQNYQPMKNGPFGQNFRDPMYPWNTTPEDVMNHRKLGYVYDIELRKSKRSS
Experiment: dopachrome assay at […] nm, initial rates, L-tyrosine as substrate (monophenolase activity)
Format: biochemical
Settings: read-out: KI1

Ki: 33.9 µM
Compound: O=c1c(O)c(-c2ccc(O)c(O)c2)oc2cc(O)cc(O)c12 [QUE, quercetin]
